Columns and labels:
[1] = system: HUVECS; assay: HUVEC cell viability (mts, absorbance 490 and 595 nm) after antisense with or without drug; type: cell-based, human
Experimental: HUVECS were grown for 2 days in wells after seeding at 1200 per well. Antisense oligonucleotide of Seq. ID No. 5 (4 μg/ml with lipofectin) was added in serum free medium and incubated with the cells for 4 hours. Then 100 μl of serum was added and incubation was continued overnight. The next day, 150 μl of drug solution in serum medium was added. After two days, 20 μl of mts solution was added and left for approximately 3 hours. Cell viability was determined as the difference between absorption at 490 and 595 nm.

[2] = system: HUVECS; conditions: by the induction of apoptosis; cited from earlier work
[3] = Table 2, Drug alone (100 nM camptothecin)
[4] = Table 3, Drug alone (200 nM doxorubicin)
[5] = Table 1, Drug alone (100 nM paclitaxel)
[6] = Table 1 (paclitaxel series), AS 50 nM, no drug
[7] = Table 1 (paclitaxel series), AS 100 nM, no drug
[8] = Table 1 (paclitaxel series), AS 200 nM, no drug
[9] = Table 1, Drug (100 nM paclitaxel) + AS 50 nM
[10] = Table 1, Drug (100 nM paclitaxel) + AS 100 nM
[11] = Table 1, Drug (100 nM paclitaxel) + AS 200 nM
[12] = Table 2 (camptothecin series), AS 50 nM, no drug
[13] = Table 2 (camptothecin series), AS 100 nM, no drug
[14] = Table 2 (camptothecin series), AS 200 nM, no drug
[15] = Table 2, Drug (100 nM camptothecin) + AS 50 nM
[16] = Table 2, Drug (100 nM camptothecin) + AS 100 nM
[17] = Table 2, Drug (100 nM camptothecin) + AS 200 nM
[18] = Table 3 (doxorubicin series), AS 50 nM, no drug
[19] = Table 3 (doxorubicin series), AS 100 nM, no drug
[20] = Table 3 (doxorubicin series), AS 200 nM, no drug
[21] = Table 3, Drug (200 nM doxorubicin) + AS 50 nM
[22] = Table 3, Drug (200 nM doxorubicin) + AS 100 nM
[23] = Table 3, Drug (200 nM doxorubicin) + AS 200 nM

CC[C@@]1(O)C(=O)OCc2c1cc1n(c2=O)Cc2cc3ccccc3nc2-1 [camptothecin, reference compound]
absorbance at 490 nm [1, 3]: 0.55
absorbance at 595 nm [1, 3]: 0.07
concentration range that inhibits Huvecs [2]: low nanomolar range

COc1cccc2c1C(=O)c1c(O)c3c(c(O)c1C2=O)C[C@@](O)(C(=O)CO)C[C@@H]3O[C@H]1C[C@H](N)[C@H](O)[C@H](C)O1 [doxorubicin, reference compound]
absorbance at 490 nm [1, 4]: 0.74
absorbance at 595 nm [1, 4]: 0.08
concentration range that inhibits Huvecs [2]: low nanomolar range

CC(=O)O[C@H]1C(=O)[C@@]2(C)[C@H]([C@H](OC(=O)c3ccccc3)[C@]3(O)C[C@H](OC(=O)[C@H](O)[C@@H](NC(=O)c4ccccc4)c4ccccc4)C(C)=C1C3(C)C)[C@]1(OC(C)=O)CO[C@@H]1C[C@@H]2O [paclitaxel, reference compound]
absorbance at 490 nm [1, 5]: 0.53
absorbance at 595 nm [1, 5]: 0.12
concentration range that inhibits Huvecs [2]: low nanomolar range

AS: Antisense oligonucleotide of Seq. ID No. 5, reduces the effective amount of clusterin (antisense CAGCAGCAGAGTCTTCATCAT; listed as DNA, chemistry not given here)
cell viability, response to antisense in the presence of drug versus absence ([1]; FIG. 1, in the presence of 100 nM paclitaxel): greater
cell viability, response to antisense concentration ([1]; FIG. 1, paclitaxel series): dose dependent response
cell viability, response to antisense concentration ([1]; FIG. 2, camptothecin series): dose dependent response
cell viability, response to antisense in the presence of drug versus absence ([1]; FIG. 2, in the presence of 100 nM camptothecin): greater
cell viability, response to antisense concentration ([1]; FIG. 3, doxorubicin series): dose dependent response
cell viability, response to antisense in the presence of drug versus absence ([1]; FIG. 3, in the presence of 200 nM doxorubicin): greater
absorbance at 490 nm [1, 6]: 0.66
absorbance at 595 nm [1, 6]: 0.04
absorbance at 490 nm [1, 7]: 0.40
absorbance at 595 nm [1, 7]: 0.09
absorbance at 490 nm [1, 8]: 0.28
absorbance at 595 nm [1, 8]: 0.07
absorbance at 490 nm [1, 9]: 0.50
absorbance at 595 nm [1, 9]: 0.09
absorbance at 490 nm [1, 10]: 0.24
absorbance at 595 nm [1, 10]: 0.04
absorbance at 490 nm [1, 11]: 0.17
absorbance at 595 nm [1, 11]: 0.05
absorbance at 490 nm [1, 12]: 0.66
absorbance at 595 nm [1, 12]: 0.10
absorbance at 490 nm [1, 13]: 0.39
absorbance at 595 nm [1, 13]: 0.06
absorbance at 490 nm [1, 14]: 0.21
absorbance at 595 nm [1, 14]: 0.04
absorbance at 490 nm [1, 15]: 0.53
absorbance at 595 nm [1, 15]: 0.07
absorbance at 490 nm [1, 16]: 0.31
absorbance at 595 nm [1, 16]: 0.08
absorbance at 490 nm [1, 17]: 0.15
absorbance at 595 nm [1, 17]: 0.05
absorbance at 490 nm [1, 18]: 0.66
absorbance at 595 nm [1, 18]: 0.07
absorbance at 490 nm [1, 19]: 0.35
absorbance at 595 nm [1, 19]: 0.05
absorbance at 490 nm [1, 20]: 0.22
absorbance at 595 nm [1, 20]: 0.04
absorbance at 490 nm [1, 21]: 0.66
absorbance at 595 nm [1, 21]: 0.06
absorbance at 490 nm [1, 22]: 0.32
absorbance at 595 nm [1, 22]: 0.04
absorbance at 490 nm [1, 23]: 0.18
absorbance at 595 nm [1, 23]: 0.02

Source: patent US20040220131A1, “Method for treatment of cancerous angiogenic disorders” (The University of British Columbia, priority 2003, published 2004)
